From ChEMBL document CHEMBL2169865, “Selective class I phosphoinositide 3-kinase inhibitors: optimization of a series of pyridyltriazines leading to the identification of a clinical candidate, AMG 511” (J Med Chem, 2012)

Experiments:
in vitro [1] = conditions: human, liver microsomes
in vitro [2] = conditions: rat, liver microsomes
in vivo [3] = conditions: Sprague-Dawley, rat, iv, 1 mg/kg
in vivo [4] = conditions: Sprague-Dawley, rat, iv, 1 mg/kg; remark: listed apart in the source
in vivo [5] = conditions: Sprague-Dawley, rat, po, 2 mg/kg
in vivo [6] = conditions: Sprague-Dawley, rat, plasma, po, 2 mg/kg
in vivo [7] = conditions: Sprague-Dawley, rat, iv, 1 mg/kg; remark: listed apart in the source
Hepatocyte [8] = conditions: rat, hepatocytes, 4 h, 3 µM
Hepatocyte [9] = conditions: rat, hepatocytes, 4 h, 3 µM; remark: listed apart in the source

Structure (SMILES)	microsomal CLint at 0.5 h, 1 µM (in vitro [1])	microsomal CLint at 0.5 h, 1 µM (in vitro [2])	MRT (in vivo [3])	Vd (in vivo [4])	bioavailability (in vivo [5])	AUC (in vivo [6])	clearance (in vivo [7])	Drug metabolism (Hepatocyte [8])	Drug metabolism (Hepatocyte [9])
COc1ncc(Nc2ncc(CN3CCN(S(C)(=O)=O)C[C@H]3C)cc2-c2nc(C)nc(N)n2)cc1F	29 µL/min/mg	120 µL/min/mg	–	–	–	–	–	–	–
COc1ncc(Nc2ncc(CN3CCN(S(C)(=O)=O)C[C@@H]3C)cc2-c2nc(C)nc(N)n2)cc1F	41 µL/min/mg	54 µL/min/mg	3.2 h	3.2 L/kg	60%	2.3 µM·h	16.7 mL/min/kg	–	–
COc1ncc(Nc2ncc([C@@H](N3CCN(S(C)(=O)=O)CC3)C(F)(F)F)cc2-c2nc(C)nc(N)n2)cc1F	23 µL/min/mg	17 µL/min/mg	–	–	–	–	–	–	–
COc1ncc(Nc2ncc([C@H](N3CCN(S(C)(=O)=O)CC3)C(F)(F)F)cc2-c2nc(C)nc(N)n2)cc1F	25 µL/min/mg	22 µL/min/mg	–	–	–	–	–	–	–
COc1ncc(Nc2ncc([C@@H](C)N3CCN(S(C)(=O)=O)C[C@H]3C)cc2-c2nc(C)nc(N)n2)cc1F	64 µL/min/mg	113 µL/min/mg	–	–	–	–	–	–	–
COc1ncc(Nc2ncc([C@H](C)N3CCN(S(C)(=O)=O)C[C@H]3C)cc2-c2nc(C)nc(N)n2)cc1F	54 µL/min/mg	174 µL/min/mg	–	–	–	–	–	–	–
COc1ncc(Nc2ncc([C@@H](C)N3CCN(S(C)(=O)=O)C[C@@H]3C)cc2-c2nc(C)nc(N)n2)cc1F	67 µL/min/mg	69 µL/min/mg	3.1 h	4 L/kg	49%	1.4 µM·h	21.7 mL/min/kg	–	–
COc1ncc(Nc2ncc([C@H](C)N3CCN(S(C)(=O)=O)C[C@@H]3C)cc2-c2nc(C)nc(N)n2)cc1F	80 µL/min/mg	128 µL/min/mg	–	–	–	–	–	–	–
COc1ncc(Nc2ncc(C(C)(C)N3CCN(S(C)(=O)=O)CC3)cc2-c2nc(C)nc(N)n2)cc1F	81 µL/min/mg	58 µL/min/mg	4.9 h	3.5 L/kg	24%	1.3 µM·h	11.7 mL/min/kg	–	–
Cc1nc(N)nc(-c2cc(CN3CCN(S(C)(=O)=O)CC3)cnc2Nc2ccc(=O)[nH]c2)n1	–	< 14 µL/min/mg	–	–	–	–	–	–	–
Cc1nc(N)nc(-c2cc(CN3CCN(S(C)(=O)=O)CC3)cnc2Nc2ccc(Cl)nc2)n1	< 14 µL/min/mg	24 µL/min/mg	–	–	–	–	–	–	–
Cc1ccc(Nc2ncc(CN3CCN(S(C)(=O)=O)CC3)cc2-c2nc(C)nc(N)n2)cn1	< 14 µL/min/mg	22 µL/min/mg	–	–	–	–	–	–	–
Cc1nc(N)nc(-c2cc(CN3CCN(S(C)(=O)=O)CC3)cnc2Nc2ccc(C(F)(F)F)nc2)n1	< 14 µL/min/mg	22 µL/min/mg	–	–	–	–	–	–	–
COc1ncc(Nc2ncc(CN3CCN(S(C)(=O)=O)CC3)cc2-c2nc(C)nc(N)n2)cn1	14 µL/min/mg	14 µL/min/mg	–	–	–	–	–	–	–
COc1ncc(Nc2ncc(CN3CCN(S(C)(=O)=O)CC3)cc2-c2nc(C)nc(N)n2)cc1F	< 14 µL/min/mg	30 µL/min/mg	1.7 h	3.3 L/kg	45%	0.95 µM·h	33.3 mL/min/kg	Active	Not Active
Cc1nc(N)nc(-c2cc(CN3CCN(S(C)(=O)=O)CC3)cnc2Nc2cncc(F)c2)n1	< 14 µL/min/mg	30 µL/min/mg	–	–	–	–	–	–	–
COc1cncc(Nc2ncc(CN3CCN(S(C)(=O)=O)CC3)cc2-c2nc(C)nc(N)n2)c1	14 µL/min/mg	29 µL/min/mg	–	–	–	–	–	–	–
